Results on 7 molecules are retold here after patent US20260201008A1, “SECRETIN-DERIVED GLP1R SELECTIVE AGONISTS” (GUBRA A/S, priority 2023, published 2026).

One data set addresses SCTR (Homo sapiens, UniProt P47872). As to the kind of experiment: hSCTR potency, cAMP accumulation in CHO-K1 cells stably overexpressing hSCTR. It counts as cell-based. Conditions: cAMP accumulation, CHO-K1 cells overexpressing hSCTR; read-out: hSCTR pEC50 (converted). Also on record: alternatively Euroscreen ES-712-AF; FAST-0161L; host or cells: CHO-K1. In short, it runs like this:
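Division-arrested CHO-K1 cells stably expressing hSCTR were plated in DPBS with 0.05% casein and 0.5 mM IBMX, then stimulated with test peptide for 30 min at room temperature. cAMP was read by HTRF after one hour. EC50 came from variable-slope sigmoidal nonlinear regression.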

For a further data set, the target named is GLP1R (Homo sapiens, UniProt P43220). As to the kind of experiment: hGLP1R potency, cAMP accumulation in CHO-K1 cells stably overexpressing hGLP1R. It counts as cell-based. The arrangement: host or cells: CHO-K1. Conditions: for EC50: cAMP accumulation, CHO-K1 cells overexpressing hGLP1R, read-out: hGLP1R pEC50 (converted); for SCTR EC50/GLP1R EC50 ratio: selectivity for hGLP1R over hSCTR, cAMP accumulation in CHO-K1 cells. In short, it runs like this:
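Cells were plated in DPBS with 0.05% casein and 0.5 mM IBMX, then stimulated for 30 min at room temperature with test compound. cAMP was read by TR-FRET after one hour. EC50 came from variable-slope sigmoid nonlinear regression; purified peptides ran as 11-point 3-fold series, n=2.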
Background: Changes in cAMP serve as a functional read-out for many G protein-coupled receptors.

Data set [1] in a line: Turbidity of crude library peptides (absorbance at 600 nm). Type of data set: physicochemical. The following applies: Physical stability of peptides. In short, it runs like this: (§1)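 Values reflect mean ThT emission (ex 450, em 480 nm) over 72 h at 40° C, read every 10 min after 5 min shaking at 700 rpm, plus a single initial absorbance at 600 nm for turbidity. Peptides were at 267 μM, pH 4.0 acetate or pH 7.0 phosphate (50 mM), with 4 μM ThT.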

A short description of data set [2]: Fibril formation of crude library peptides (Thioflavin T). It counts as physicochemical. Also on record: key: average ThT fluorescence emission at 480 nm (ex 450 nm), raw units. The following applies: Physical stability of peptides. The gist of the method: as §1

Molecules are shown by their SMILES. Numbered stars: 1 amine (or outer) side, 2 acyl side, 3 side chain; on linkers, the order of the positions; unused ones are H or OH. Square brackets hold non-standard residues; d marks the D form. Side chains are listed from the residue outwards. Peptide text beside a SMILES is read from it. * marks the point of attachment. C20 diacid = O=C(O)CCCCCCCCCCCCCCCCCCC(=O)*; γGlu = O=C(O)[C@H](CCC(=O)[*:2])N[*:1]; AEEA = NCCOCCOCC(=O)O; Aib = CC(C)(N)C(=O)O

Chain of GLP1R (P43220 24-463): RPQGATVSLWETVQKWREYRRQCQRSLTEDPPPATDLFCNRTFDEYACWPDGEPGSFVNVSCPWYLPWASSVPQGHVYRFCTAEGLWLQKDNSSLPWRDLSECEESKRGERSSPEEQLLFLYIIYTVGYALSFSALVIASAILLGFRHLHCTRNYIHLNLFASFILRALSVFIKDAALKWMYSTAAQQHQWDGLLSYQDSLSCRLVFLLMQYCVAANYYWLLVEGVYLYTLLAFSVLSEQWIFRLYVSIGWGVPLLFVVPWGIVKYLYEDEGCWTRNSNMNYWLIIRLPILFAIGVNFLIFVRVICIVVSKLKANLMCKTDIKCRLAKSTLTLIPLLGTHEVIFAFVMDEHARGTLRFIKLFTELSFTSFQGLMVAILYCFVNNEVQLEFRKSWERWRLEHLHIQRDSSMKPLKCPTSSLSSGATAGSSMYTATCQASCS
Chain of SCTR (P47872 23-440): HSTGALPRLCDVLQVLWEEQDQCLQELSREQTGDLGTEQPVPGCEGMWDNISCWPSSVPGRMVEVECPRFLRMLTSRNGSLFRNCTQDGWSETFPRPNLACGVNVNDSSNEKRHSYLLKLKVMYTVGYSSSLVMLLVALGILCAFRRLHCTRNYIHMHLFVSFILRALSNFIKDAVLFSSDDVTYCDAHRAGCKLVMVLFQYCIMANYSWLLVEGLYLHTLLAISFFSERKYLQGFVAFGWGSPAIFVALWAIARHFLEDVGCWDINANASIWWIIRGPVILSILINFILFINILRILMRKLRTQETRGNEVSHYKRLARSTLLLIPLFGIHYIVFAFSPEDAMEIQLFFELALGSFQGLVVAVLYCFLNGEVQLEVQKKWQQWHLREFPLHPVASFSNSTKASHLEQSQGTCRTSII

For `CC[C@H](C)[C@H](NC(=O)C(C)(C)NC(=O)[C@@H](N)Cc1c[nH]cn1)C(=O)NCC(=O)N[C@H](C(=O)N[C@@H](Cc1ccccc1)C(=O)N[C@H](C(=O)N[C@@H](CO)C(=O)N[C@@H](CC(=O)O)C(=O)N[C@H](C(=O)N[C@@H](CO)C(=O)N[C@@H](Cc1ccc(O)cc1)C(=O)N[C@@H](CC(C)C)C(=O)N[C@@H](CCCCNC(=O)COCCOCCNC(=O)COCCOCCNC(=O)CC[C@H](NC(=O)CCCCCCCCCCCCCCCCCCC(=O)O)C(=O)O)C(=O)N[C@@H](CCC(=O)O)C(=O)N[C@@H](CCC(=O)O)C(=O)N[C@@H](C)C(=O)NC(C)(C)C(=O)N[C@@H](CC(C)C)C(=O)N[C@@H](CCC(N)=O)C(=O)N[C@@H](CCCNC(=N)N)C(=O)N[C@@H](Cc1ccccc1)C(=O)N[C@@H](CC(C)C)C(=O)N[C@@H](CCC(=O)O)C(=O)N[C@@H](Cc1c[nH]cn1)C(=O)N[C@@H](CC(C)C)C(=O)N[C@H](C(N)=O)C(C)C)C(C)C)[C@@H](C)O)[C@@H](C)O` [compound 175] (H-H[Aib]IGTFTSDVSYLK([AEEA-AEEA-γGlu-C20 diacid])EEA[Aib]LQRFLEHLV-NH2), the EC50 at SCTR is 7940 nM. At GLP1R, the EC50 is 0.0316 nM and the “SCTR EC50/GLP1R EC50 ratio” value is 247885. Also, the “Turbidity (pH 7)” value in data set [1] is on record as 0.08. Also, in data set [2], the Fibril formation worked out at 3296.

Turning to `CC(C)C[C@H](NC(=O)[C@H](Cc1ccccc1)NC(=O)[C@H](CCCNC(=N)N)NC(=O)[C@H](CCC(N)=O)NC(=O)[C@H](CC(C)C)NC(=O)C(C)(C)NC(=O)[C@H](C)NC(=O)[C@H](CCC(=O)O)NC(=O)[C@H](CCC(=O)O)NC(=O)[C@H](Cc1ccccc1)NC(=O)[C@H](CC(C)C)NC(=O)[C@H](Cc1ccc(O)cc1)NC(=O)[C@H](CO)NC(=O)[C@@H](NC(=O)[C@H](CC(=O)O)NC(=O)[C@H](CO)NC(=O)[C@@H](NC(=O)[C@H](Cc1ccccc1)NC(=O)[C@@H](NC(=O)CNC(=O)[C@H](CCC(=O)O)NC(=O)C(C)(C)NC(=O)[C@@H](N)Cc1c[nH]cn1)[C@@H](C)O)[C@@H](C)O)C(C)C)C(=O)N[C@@H](CCC(=O)O)C(=O)N[C@@H](CCCCNC(=O)COCCOCCNC(=O)COCCOCCNC(=O)CC[C@H](NC(=O)CCCCCCCCCCCCCCCCCCC(=O)O)C(=O)O)C(=O)N[C@@H](CC(C)C)C(=O)N[C@H](C(N)=O)C(C)C` [compound 176] (H-H[Aib]EGTFTSDVSYLFEEA[Aib]LQRFLEK([AEEA-AEEA-γGlu-C20 diacid])LV-NH2), the EC50 at SCTR is 3160 nM. At GLP1R, the EC50 was 0.0316 nM and the “SCTR EC50/GLP1R EC50 ratio” value stood at 89023. Moreover, the “Turbidity (pH 7)” value in data set [1] was 0.08. In addition, in data set [2], the Fibril formation came out at 3751.

On to `CC[C@H](C)[C@H](NC(=O)[C@H](Cc1ccccc1)NC(=O)[C@H](CCCNC(=N)N)NC(=O)[C@H](CCC(N)=O)NC(=O)[C@H](CC(C)C)NC(=O)[C@H](C)NC(=O)[C@H](C)NC(=O)CNC(=O)[C@H](CCC(=O)O)NC(=O)[C@H](CC(C)C)NC(=O)[C@H](CC(C)C)NC(=O)[C@H](Cc1ccccc1)NC(=O)[C@H](CO)NC(=O)[C@@H](NC(=O)[C@H](CC(=O)O)NC(=O)[C@H](CO)NC(=O)[C@@H](NC(=O)[C@H](Cc1ccccc1)NC(=O)[C@@H](NC(=O)CNC(=O)[C@H](CCC(=O)O)NC(=O)C(C)(C)NC(=O)[C@@H](N)Cc1c[nH]cn1)[C@@H](C)O)[C@@H](C)O)C(C)C)C(=O)N[C@@H](CCC(N)=O)C(=O)N[C@@H](Cc1c[nH]c2ccccc12)C(=O)N[C@@H](CC(C)C)C(=O)N[C@H](C(N)=O)C(C)C` [compound 177] (H-H[Aib]EGTFTSDVSFLLEGAALQRFIQWLV-NH2), for which, on SCTR, the EC50 is 501 nM. Moreover, on GLP1R, the EC50 was 0.0158 nM and the “SCTR EC50/GLP1R EC50 ratio” value was determined as 30839. Further, the “Turbidity (pH 7)” value in data set [1] was found to be 0.53. The Fibril formation in data set [2] is on record as 260000.

In the case of `CC[C@H](C)[C@H](NC(=O)[C@H](Cc1ccccc1)NC(=O)[C@H](CCCNC(=N)N)NC(=O)[C@H](CCC(N)=O)NC(=O)[C@H](CC(C)C)NC(=O)[C@H](C)NC(=O)[C@H](C)NC(=O)CNC(=O)[C@H](CCC(=O)O)NC(=O)[C@H](CC(C)C)NC(=O)[C@H](CC(C)C)NC(=O)[C@H](CCCNC(=N)N)NC(=O)[C@H](CO)NC(=O)[C@@H](NC(=O)[C@H](CC(=O)O)NC(=O)[C@H](CO)NC(=O)[C@@H](NC(=O)[C@H](Cc1ccccc1)NC(=O)[C@@H](NC(=O)CNC(=O)[C@H](CCC(=O)O)NC(=O)C(C)(C)NC(=O)[C@@H](N)Cc1c[nH]cn1)[C@@H](C)O)[C@@H](C)O)C(C)C)C(=O)N[C@@H](CCC(N)=O)C(=O)N[C@@H](Cc1c[nH]c2ccccc12)C(=O)N[C@@H](CC(C)C)C(=O)N[C@H](C(N)=O)C(C)C` [compound 178] (H-H[Aib]EGTFTSDVSRLLEGAALQRFIQWLV-NH2), the EC50 on SCTR is 63.1 nM. On GLP1R, the EC50 is 0.0631 nM and the “SCTR EC50/GLP1R EC50 ratio” value worked out at 891. The “Turbidity (pH 7)” value in data set [1] is 0.77. This molecule also had a Fibril formation in data set [2] of 29072.

As for `CC[C@H](C)[C@H](NC(=O)[C@H](Cc1ccccc1)NC(=O)[C@H](CCCNC(=N)N)NC(=O)[C@H](CCC(N)=O)NC(=O)[C@H](CC(C)C)NC(=O)[C@H](C)NC(=O)[C@H](C)NC(=O)CNC(=O)[C@H](CCC(=O)O)NC(=O)[C@H](CC(C)C)NC(=O)[C@H](CC(C)C)NC(=O)C(C)(C)NC(=O)[C@H](CO)NC(=O)[C@@H](NC(=O)[C@H](CC(=O)O)NC(=O)[C@H](CO)NC(=O)[C@@H](NC(=O)[C@H](Cc1ccccc1)NC(=O)[C@@H](NC(=O)CNC(=O)[C@H](CCC(=O)O)NC(=O)C(C)(C)NC(=O)[C@@H](N)Cc1c[nH]cn1)[C@@H](C)O)[C@@H](C)O)C(C)C)C(=O)N[C@@H](CCC(N)=O)C(=O)N[C@@H](Cc1c[nH]c2ccccc12)C(=O)N[C@@H](CC(C)C)C(=O)N[C@H](C(N)=O)C(C)C` [compound 179] (H-H[Aib]EGTFTSDVS[Aib]LLEGAALQRFIQWLV-NH2), the EC50 on SCTR is 501 nM; on GLP1R, 0.0794 nM. Also, at GLP1R, the “SCTR EC50/GLP1R EC50 ratio” value is given as 5995. Moreover, the “Turbidity (pH 7)” value in data set [1] is on record as 0.55. This molecule also yielded a Fibril formation in data set [2] of 22028.

Consider `CC[C@H](C)[C@H](NC(=O)[C@H](Cc1ccccc1)NC(=O)[C@H](CCCNC(=N)N)NC(=O)[C@H](CCC(N)=O)NC(=O)[C@H](CC(C)C)NC(=O)[C@H](C)NC(=O)[C@H](C)NC(=O)CNC(=O)[C@H](CCC(=O)O)NC(=O)[C@H](CC(C)C)NC(=O)[C@H](CC(C)C)NC(=O)[C@H](CCC(=O)O)NC(=O)[C@H](CO)NC(=O)[C@@H](NC(=O)[C@H](CC(=O)O)NC(=O)[C@H](CO)NC(=O)[C@@H](NC(=O)[C@H](Cc1ccccc1)NC(=O)[C@@H](NC(=O)CNC(=O)[C@H](CCC(=O)O)NC(=O)C(C)(C)NC(=O)[C@@H](N)Cc1c[nH]cn1)[C@@H](C)O)[C@@H](C)O)C(C)C)C(=O)N[C@@H](CCC(N)=O)C(=O)N[C@@H](Cc1c[nH]c2ccccc12)C(=O)N[C@@H](CC(C)C)C(=O)N[C@H](C(N)=O)C(C)C` [compound 180] (H-H[Aib]EGTFTSDVSELLEGAALQRFIQWLV-NH2), for which the EC50 on SCTR is 200 nM. In addition, at GLP1R, the EC50 is 0.0158 nM and the “SCTR EC50/GLP1R EC50 ratio” value was determined as 11144. For the same molecule, the “Turbidity (pH 7)” value in data set [1] was 0.12. Further, in data set [2], the Fibril formation came out at 53478.

As to `CC[C@H](C)[C@H](NC(=O)[C@H](Cc1ccccc1)NC(=O)[C@H](CCCNC(=N)N)NC(=O)[C@H](CCC(N)=O)NC(=O)[C@H](CC(C)C)NC(=O)[C@H](C)NC(=O)[C@H](C)NC(=O)CNC(=O)[C@H](CCC(=O)O)NC(=O)[C@H](CC(C)C)NC(=O)[C@H](CC(C)C)NC(=O)[C@H](Cc1ccc(O)cc1)NC(=O)[C@H](CO)NC(=O)[C@@H](NC(=O)[C@H](CC(=O)O)NC(=O)[C@H](CO)NC(=O)[C@@H](NC(=O)[C@H](Cc1ccccc1)NC(=O)[C@@H](NC(=O)CNC(=O)[C@H](CCC(=O)O)NC(=O)C(C)(C)NC(=O)[C@@H](N)Cc1c[nH]cn1)[C@@H](C)O)[C@@H](C)O)C(C)C)C(=O)N[C@@H](CCC(N)=O)C(=O)N[C@@H](Cc1c[nH]c2ccccc12)C(=O)N[C@@H](CC(C)C)C(=O)N[C@H](C(N)=O)C(C)C` [compound 181] (H-H[Aib]EGTFTSDVSYLLEGAALQRFIQWLV-NH2), the EC50 on SCTR is 200 nM; at GLP1R, 0.0501 nM. The “SCTR EC50/GLP1R EC50 ratio” value on GLP1R was found to be 4280. The “Turbidity (pH 7)” value in data set [1] is listed as 0.69. In data set [2], this molecule registered a Fibril formation of 257400.
